# Where a SMILES comes first, the peptide text is derived from it. [ ]: non-standard residue; d: D form. The star is where a group is joined. βGlc = OC[C@H]1O[C@@H](*)[C@H](O)[C@@H](O)[C@@H]1O; Nle = CCCC[C@H](N)C(=O)O
# Key:
# Assay type in all cases: cell-based
# [1] = target: T1, VPAC1 (Homo sapiens, UniProt P32241); assay: VPAC1 agonist data (Table 2)
# T1 sequence (P32241 31-457): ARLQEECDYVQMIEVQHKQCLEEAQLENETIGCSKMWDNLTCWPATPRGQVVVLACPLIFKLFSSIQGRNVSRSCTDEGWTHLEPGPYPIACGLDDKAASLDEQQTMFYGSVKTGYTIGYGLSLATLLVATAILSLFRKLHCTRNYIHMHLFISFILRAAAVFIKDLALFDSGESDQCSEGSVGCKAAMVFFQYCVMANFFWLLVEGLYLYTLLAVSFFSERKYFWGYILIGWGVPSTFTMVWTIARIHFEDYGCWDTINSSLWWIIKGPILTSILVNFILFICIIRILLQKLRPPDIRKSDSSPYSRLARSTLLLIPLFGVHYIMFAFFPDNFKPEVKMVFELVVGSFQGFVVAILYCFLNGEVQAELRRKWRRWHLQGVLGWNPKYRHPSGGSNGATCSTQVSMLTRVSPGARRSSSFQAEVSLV
# [2] = target: T2, VPAC2 (Homo sapiens, UniProt P41587); assay: VPAC2 agonist data (Table 2)
# T2 sequence (P41587 24-438): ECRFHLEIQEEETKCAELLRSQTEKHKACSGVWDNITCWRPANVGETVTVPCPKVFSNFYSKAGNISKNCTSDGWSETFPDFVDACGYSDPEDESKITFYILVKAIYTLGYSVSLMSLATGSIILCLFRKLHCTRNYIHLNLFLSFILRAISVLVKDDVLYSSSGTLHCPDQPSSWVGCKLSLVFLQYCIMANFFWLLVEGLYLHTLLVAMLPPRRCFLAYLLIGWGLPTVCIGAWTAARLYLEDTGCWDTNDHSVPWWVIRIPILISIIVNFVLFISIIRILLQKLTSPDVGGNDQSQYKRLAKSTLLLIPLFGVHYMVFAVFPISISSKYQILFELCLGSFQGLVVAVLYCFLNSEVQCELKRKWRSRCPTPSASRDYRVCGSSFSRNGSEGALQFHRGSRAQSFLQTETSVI
# [3] = target: T3, PAC1 (Homo sapiens, UniProt P41586); assay: PAC1 agonist data (Table 2); design: host or cells: CHO (clonal line PAC1-CHO)
# T3 sequence (P41586 21-468): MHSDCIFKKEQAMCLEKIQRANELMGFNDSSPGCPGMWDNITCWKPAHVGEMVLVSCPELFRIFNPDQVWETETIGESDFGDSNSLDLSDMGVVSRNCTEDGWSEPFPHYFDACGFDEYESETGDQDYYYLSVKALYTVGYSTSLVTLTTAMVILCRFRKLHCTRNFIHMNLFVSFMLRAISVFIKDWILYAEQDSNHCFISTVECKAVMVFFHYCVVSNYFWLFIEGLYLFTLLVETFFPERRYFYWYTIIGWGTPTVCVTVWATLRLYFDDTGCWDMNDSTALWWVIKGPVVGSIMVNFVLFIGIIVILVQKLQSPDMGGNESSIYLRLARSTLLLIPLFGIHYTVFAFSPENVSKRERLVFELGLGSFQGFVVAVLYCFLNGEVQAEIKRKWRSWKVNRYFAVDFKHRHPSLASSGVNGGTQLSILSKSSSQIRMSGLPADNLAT
# Method: A custom DNA clone of the human PAC1 gene with 3 hemagglutinin (HA) tags inserted 3′ to the signal peptide sequence (to avoid proteolytic loss) was obtained from Genecopoeia (Rockville, MD). The construct was electroporated into Chinese Hamster Ovary (CHO) cells, and selected for with 500 μg/mL of G418. The resulting population was screened for high expressing clones, and one such clone selected for further analysis. […] This cell line was used for all molecular pharmacology experiments. The cells were maintained in DMEM/F12 with 10% heat-inactivated FBS, 1× penicillin/streptomycin, and 500 μg/mL G418, at 37° C. and 5% CO2.
# All molecular pharmacology experiments were carried out using a FLIPR Tetra from Molecular Devices (Sunnyvale, CA), set to image calcium flux using the manufacturer's recommended settings and protocols. The day before an experiment, the PAC1-CHO cells were split into 384 well black walled, clear bottom microplates, 10,000 cells per well. The cells were recovered overnight in growth medium (as above). The next day, the growth medium was replaced with Calcium 6 dye (Molecular Devices) using the manufacturer recommended buffer with 2.5 mM probenecid. The cells were incubated for 2 hours in the culture incubator, and removed during the last 15 minutes to allow equilibration to room temperature. Compound as indicated below was added to the cells using a 384 tip block, with real time monitoring before, during, and 15 minutes after compound addition. The resulting calcium flux was recorded, and the maximum-minimum response over the entire observation time calculated and reported as the mean±SEM (4 wells per point).
# For agonist mode experiments, compound was added in an 11 point concentration curve, with a vehicle control (buffer). […] The response was analyzed using a 3 variable non-linear curve fit, and the EC50 (nM) and EMax (%) calculated and reported (Prism, GraphPad, La Jolla, CA).
Compound,EC50 [1],Emax [1],EC50 [2],Emax [2],EC50 [3],Emax [3]
CCCC[C@H](NC(=O)[C@H](CCC(N)=O)NC(=O)[C@H](CCCCN)NC(=O)[C@H](CCCNC(=N)N)NC(=O)[C@H](Cc1ccc(O)cc1)NC(=O)[C@H](CCCNC(=N)N)NC(=O)[C@H](CO)NC(=O)[C@H](Cc1ccc(O)cc1)NC(=O)[C@H](CO)NC(=O)[C@H](CC(=O)O)NC(=O)[C@H](C)NC(=O)[C@H](Cc1ccccc1)NC(=O)[C@@H](NC(=O)CNC(=O)[C@H](CC(=O)O)NC(=O)[C@@H](CO)NC(=O)[C@@H](N)Cc1c[nH]cn1)[C@@H](C)CC)C(=O)N[C@@H](C)C(=O)N[C@H](C(=O)N[C@@H](CCCCN)C(=O)N[C@@H](CCCCN)C(=O)N[C@@H](Cc1ccc(O)cc1)C(=O)N[C@@H](CC(C)C)C(=O)N[C@@H](C)C(=O)N[C@@H](C)C(=O)N[C@H](C(=O)N[C@@H](CO[C@@H]1O[C@H](CO)[C@@H](O)[C@H](O)[C@H]1O)C(=O)N[C@@H](CC(C)C)C(N)=O)C(C)C)C(C)C (H-H[dS]DGIFADSYSRYRKQ[Nle]AVKKYLAAVS(βGlc)L-NH2; C-terminus assumed),1620 nM,78%,,,,
CCCC[C@H](NC(=O)[C@H](CCC(N)=O)NC(=O)[C@H](CCCCN)NC(=O)[C@H](CCCNC(=N)N)NC(=O)[C@H](Cc1ccc(O)cc1)NC(=O)[C@H](CCCNC(=N)N)NC(=O)[C@H](CO)NC(=O)[C@H](Cc1ccc(O)cc1)NC(=O)[C@H](CO)NC(=O)[C@H](CC(=O)O)NC(=O)[C@@H](NC(=O)[C@H](Cc1ccccc1)NC(=O)[C@@H](NC(=O)CNC(=O)[C@H](CC(=O)O)NC(=O)[C@@H](CO)NC(=O)[C@@H](N)Cc1c[nH]cn1)[C@@H](C)CC)[C@@H](C)O)C(=O)N[C@@H](C)C(=O)N[C@H](C(=O)N[C@@H](CCCCN)C(=O)N[C@@H](CCCCN)C(=O)N[C@@H](Cc1ccc(O)cc1)C(=O)N[C@@H](CC(C)C)C(=O)N[C@@H](C)C(=O)N[C@@H](C)C(=O)N[C@@H](CC(C)C)C(=O)N[C@@H](CO[C@@H]1O[C@H](CO)[C@@H](O)[C@H](O)[C@H]1O)C(=O)N[C@@H](CC(C)C)C(N)=O)C(C)C (H-H[dS]DGIFTDSYSRYRKQ[Nle]AVKKYLAALS(βGlc)L-NH2; C-terminus assumed),5.9 nM,93%,> 2500 nM,-95%,> 250 nM,-79%
CCCC[C@H](NC(=O)[C@H](CCC(N)=O)NC(=O)[C@H](CCCCN)NC(=O)[C@H](CCCNC(=N)N)NC(=O)[C@H](Cc1ccc(O)cc1)NC(=O)[C@H](CCCNC(=N)N)NC(=O)[C@H](CO)NC(=O)[C@H](Cc1ccc(O)cc1)NC(=O)[C@H](CO)NC(=O)[C@H](CC(=O)O)NC(=O)[C@@H](NC(=O)[C@H](Cc1ccccc1)NC(=O)[C@@H](NC(=O)CNC(=O)[C@H](CC(=O)O)NC(=O)[C@@H](CO)NC(=O)[C@@H](N)Cc1c[nH]cn1)[C@@H](C)CC)[C@@H](C)O)C(=O)N[C@@H](C)C(=O)N[C@H](C(=O)N[C@@H](CCCCN)C(=O)N[C@@H](CCCCN)C(=O)N[C@@H](Cc1ccc(O)cc1)C(=O)N[C@@H](CC(C)C)C(=O)N[C@@H](C)C(=O)N[C@@H](C)C(=O)N[C@H](C(=O)N[C@@H](CO[C@@H]1O[C@H](CO)[C@@H](O)[C@H](O)[C@H]1O)C(N)=O)C(C)C)C(C)C,4.8 nM,90%,654 nM,107%,54.5 nM,86%
CCCC[C@H](NC(=O)[C@H](CCC(N)=O)NC(=O)[C@H](CCCCN)NC(=O)[C@H](CCCNC(=N)N)NC(=O)[C@H](Cc1ccc(O)cc1)NC(=O)[C@H](CCCNC(=N)N)NC(=O)[C@H](CO)NC(=O)[C@H](Cc1ccc(O)cc1)NC(=O)[C@H](CO)NC(=O)[C@H](CC(=O)O)NC(=O)[C@@H](NC(=O)[C@H](Cc1ccccc1)NC(=O)[C@@H](NC(=O)CNC(=O)[C@H](CC(=O)O)NC(=O)[C@@H](CO)NC(=O)[C@@H](N)Cc1c[nH]cn1)[C@@H](C)CC)[C@@H](C)O)C(=O)N[C@@H](C)C(=O)N[C@H](C(=O)N[C@@H](CCCCN)C(=O)N[C@@H](CCCCN)C(=O)N[C@@H](Cc1ccc(O)cc1)C(=O)N[C@@H](CC(C)C)C(=O)N[C@@H](C)C(=O)N[C@@H](C)C(=O)N[C@H](C(=O)N[C@@H](CC(C)C)C(=O)N[C@@H](CO[C@@H]1O[C@H](CO)[C@@H](O)[C@H](O)[C@H]1O)C(N)=O)C(C)C)C(C)C,1.3 nM,90%,241 nM,104%,25.5 nM,85%
CCCC[C@H](NC(=O)[C@H](CCC(N)=O)NC(=O)[C@H](CCCCN)NC(=O)[C@H](CCCNC(=N)N)NC(=O)[C@H](Cc1ccc(O)cc1)NC(=O)[C@H](CCCNC(=N)N)NC(=O)[C@H](CO)NC(=O)[C@H](Cc1ccc(O)cc1)NC(=O)[C@H](CO)NC(=O)[C@H](CC(=O)O)NC(=O)[C@H](C)NC(=O)[C@H](Cc1ccccc1)NC(=O)[C@@H](NC(=O)CNC(=O)[C@H](CC(=O)O)NC(=O)[C@@H](CO)NC(=O)[C@@H](N)Cc1c[nH]cn1)[C@@H](C)CC)C(=O)N[C@@H](C)C(=O)N[C@H](C(=O)N[C@@H](CCCCN)C(=O)N[C@@H](CCCCN)C(=O)N[C@@H](Cc1ccc(O)cc1)C(=O)N[C@@H](CC(C)C)C(=O)N[C@@H](C)C(=O)N[C@@H](C)C(=O)N[C@H](C(=O)N[C@@H](CO[C@@H]1O[C@H](CO)[C@@H](O)[C@H](O)[C@H]1O)C(N)=O)C(C)C)C(C)C (H-H[dS]DGIFADSYSRYRKQ[Nle]AVKKYLAAVS(βGlc)-NH2; C-terminus assumed),1370 nM,85%,,,,

# — US20240294595A1, “GLYCOPEPTIDES AND USES THEREOF” (Arizona Board of Regents on Behalf of the University of …, priority 2013, published 2024)
